Measurements published in patent US10800772B2 (Gilead Sciences, Inc., priority 2016, dated 2020).
Like-named read-outs stand apart in the source and are kept apart here.

How the values were obtained:
Type in all cases: cell-based, HIV-1
[1] = system: HIV-IIIb (wildtype); assay: Antiviral assay in MT4 cells, HIV-IIIb wildtype; conditions: read-out: WT EC50
In short: (§1)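 Luminescence from CellTiter-Glo after a 5-day culture served as the measure of HIV-1 replication in MT4 cells. Cells were infected beforehand for 3 h with HIV-IIIb (0.004 m.o.i.) and exposed to ten 3-fold compound dilutions. EC50 corresponds to a 50% signal decrease.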

[2] = system: HIV-IIIb IN T174I DE; assay: Antiviral assay in MT4 cells, HIV-IIIb IN T174I DE virus (from dose escalation passaging)
In short: as §1

[3] = system: HIV-IIIb IN T174I BT; assay: Antiviral assay in MT4 cells, HIV-IIIb IN T174I BT virus (from viral breakthrough)
In short: as §1

[4] = Human immunodeficiency virus 1, IIIB, MT4, 120 h
[5] = Human immunodeficiency virus 1, IIIB, MT4, 120 h, read-out: T174I DE EC50, MT4 cells, HIV-IIIb IN T174I DE (dose escalation), 5 days, CellTiter-Glo
[6] = Human immunodeficiency virus 1, IIIB, MT4, 120 h, read-out: T174I BT EC50, MT4 cells, HIV-IIIb IN T174I BT (viral breakthrough), 5 days, CellTiter-Glo
[7] = MT4 cells, HIV-IIIb wildtype, 5 days, CellTiter-Glo
[8] = MT4 cells, HIV-IIIb IN T174I DE (dose escalation), 5 days, CellTiter-Glo, read-out: T174I DE EC50
[9] = MT4 cells, HIV-IIIb IN T174I BT (viral breakthrough), 5 days, CellTiter-Glo, read-out: T174I BT EC50

| Molecule | EC50 [1, 4] [nM] | EC50 [2, 5] [nM] | EC50 [3, 6] [nM] | EC50 [1, 7] [nM] | EC50 [2, 8] [nM] | EC50 [3, 9] [nM] |
| --- | --- | --- | --- | --- | --- | --- |
| CC(=O)N1CC(N2CCC(c3c4nc(-c5nc6cc(C)c([C@H](OC(C)(C)C)C(=O)O)c(-c7ccc(Cl)cc7)c6s5)ccc4nn3C(F)F)CC2)C1 [Compound 189, (S)-2-(2-(3-(1-(1-acetylazetidin-3-yl)piperidin-4-yl)-2-(difluoromethyl)-2H-pyrazolo [4,3-b]pyridin-5-yl)-7-(4-chloro-phenyl)-5-methylbenzo[d]thiazol-6-yl)-2-(tert-butoxy) acetic acid] | 12 | 1400 | 1020 |  |  |  |
| COC(=O)N1CC(N2CCC(c3c4nc(-c5nc6cc(C)c([C@H](OC(C)(C)C)C(=O)O)c(-c7ccc(Cl)cc7)c6s5)ccc4nn3C(F)F)CC2)C1 [Compound 190, (S)-2-(tert-butoxy)-2-(7-(4-chloro-phenyl)-2-(2-(difluoromethyl)-3-(1-(1-(methoxy-carbonyl)azetidin-3-yl)piperidin-4-yl)-2H-pyrazolo [4,3-b]pyridin-5-yl)-5-methylbenzo [d]thiazol-6-yl) acetic acid] | 6 | 2750 | 1760 |  |  |  |
| [2H]C([2H])([2H])n1nc(C2CCN(C3CN(C(=O)OC)C3)CC2)c2nc(-c3nc4cc(C)c([C@H](OC(C)(C)C)C(=O)O)c(-c5ccc(Cl)cc5)c4s3)ccc21 [Compound 191, (S)-2-(tert-butoxy)-2-(7-(4-chloro-phenyl)-2-(3-(1-(1-(methoxycarbonyl)azetidin-3-yl)piperidin-4-yl)-1-(methyl-d3)-1H-pyrazolo[4,3-b]pyridin-5-yl)-5-methylbenzo[d]thiazol-6-yl) acetic acid] | 2 | 108 | 55 |  |  |  |
| [2H]C([2H])([2H])n1nc(C2CCN(C3CN(C(C)=O)C3)CC2)c2nc(-c3nc4cc(C)c([C@H](OC(C)(C)C)C(=O)O)c(-c5ccc(Cl)cc5)c4s3)ccc21 [Compound 192, (S)-2-(2-(3-(1-(1-acetylazetidin-3-yl)piperidin-4-yl)-1-(methyl-d3)-1H-pyrazolo [4,3-b]pyridin-5-yl)-7-(4-chloro-phenyl)-5-methylbenzo[d]thiazol-6-yl)-2-(tert-butoxy) acetic acid] | 1 | 55 | 28 |  |  |  |
| COC(=O)N1CC[C@H](N2CCC(c3nn(C)c4ccc(-c5nc6cc(C)c([C@H](OC(C)(C)C)C(=O)O)c(-c7ccc(Cl)cc7)c6s5)nc34)CC2)C1 [Compound 193, (S)-2-(tert-butoxy)-2-(7-(4-chloro-phenyl)-2-(3-(1-((S)-l-(methoxy-carbonyl)pyrrolidin-3-yl)piperidin-4-yl)-1-methyl-1H-pyrazolo[4,3-b]pyridin-5-yl)-5-methylbenzo[d]thiazol-6-yl) acetic acid] | 3 | 265 | 87 |  |  |  |
| Cc1cc2nc(-c3ccc4c(n3)c(C3CCN(C5COC5)CC3)nn4C(F)F)sc2c(-c2ccc(Cl)cc2)c1[C@H](OC(C)(C)C)C(=O)O [Compound 194, (S)-2-(tert-butoxy)-2-(7-(4-chloro-phenyl)-2-(1-(difluoromethyl)-3-(1-(oxetan-3-yl)piperidin-4-yl)-1H-pyrazolo [4,3-b]pyridin-5-yl)-5-methylbenzo [d]thiazol-6-yl) acetic acid] | 4 | 300 | 126 |  |  |  |
| Cc1cc2nc(-c3ccc4c(n3)c(N3CCN(C5CS(=O)(=O)C5)CC3)nn4C)sc2c(-c2ccc(Cl)cc2)c1[C@H](OC(C)(C)C)C(=O)O [Compound 198, (S)-2-(tert-butoxy)-2-(7-(4-chloro-phenyl)-2-(3-(4-(1,1-dioxidothietan-3-yl)piperazin-1-yl)-1-methyl-1H-pyrazolo[4,3-b]pyridin-5-yl)-5-methylbenzo[d]thiazol-6-yl) acetic acid] | 9 | 4620 | 1040 |  |  |  |
| COC(=O)N1CC(N2CCC(c3cn(C)c4ncc(-c5nc6cc(C)c([C@H](OC(C)(C)C)C(=O)O)c(-c7ccc(Cl)cc7)c6s5)nc34)CC2)C1 [Compound 199, (S)-2-(tert-butoxy)-2-(7-(4-chloro-phenyl)-2-(7-(1-(1-(methoxycarbonyl)azetidin-3-yl)piperidin-4-yl)-5-methyl-5H-pyrrolo[2,3-b]pyrazin-2-yl)-5-methylbenzo[d]thiazol-6-yl) acetic acid] | 4 | 770 | 149 |  |  |  |
| CC(=O)N1CC(N2CCC(c3cn(C)c4ncc(-c5nc6cc(C)c([C@H](OC(C)(C)C)C(=O)O)c(-c7ccc(Cl)cc7)c6s5)nc34)CC2)C1 [Compound 200, (S)-2-(2-(7-(1-(1-acetylazetidin-3-yl)piperidin-4-yl)-5-methyl-5H-pyrrolo[2,3-b]pyrazin-2-yl)-7-(4-chlorophenyl)-5-methylbenzo [d]thiazol-6-yl)-2-(tert-butoxy) acetic acid] | 1 | 241 | 90 |  |  |  |
| COC(=O)N1CC[C@@H](N2CCC(c3cn(C)c4ncc(-c5nc6cc(C)c([C@H](OC(C)(C)C)C(=O)O)c(-c7ccc(Cl)cc7)c6s5)cc34)CC2)C1 [Compound 201, (S)-2-(tert-butoxy)-2-(7-(4-chloro-phenyl)-2-(3-(1-((R)-1-(methoxy-carbonyl)pyrrolidin-3-yl)piperidin-4-yl)-1-methyl-1H-pyrrolo[2,3-b]pyridin-5-yl)-5-methylbenzo[d]thiazol-6-yl) acetic acid] | 7 | 530 | 92 |  |  |  |
| COC(=O)N1CC(N2CCC(c3cn(C)c4ncc(-c5nc6cc(C)c([C@H](OC(C)(C)C)C(=O)O)c(-c7ccc(Cl)cc7)c6s5)cc34)CC2)C1 [Compound 203, (S)-2-(tert-butoxy)-2-(7-(4-chloro-phenyl)-2-(3-(1-(1-(methoxycarbonyl)azetidin-3-yl)piperidin-4-yl)-1-methyl-1H-pyrrolo[2,3-b]pyridin-5-yl)-5-methylbenzo[d]thiazol-6-yl) acetic acid] | 11 | 702 | 215 |  |  |  |
| CC(=O)N1CC(N2CCC(c3cn(C)c4ncc(-c5nc6cc(C)c([C@H](OC(C)(C)C)C(=O)O)c(-c7ccc(Cl)cc7)c6s5)cc34)CC2)C1 [Compound 204, (S)-2-(2-(3-(1-(1-acetylazetidin-3-yl)piperidin-4-yl)-1-methyl-1H-pyrrolo[2,3-b]pyridin-5-yl)-7-(4-chlorophenyl)-5-methylbenzo [d]thiazol-6-yl)-2-(tert-butoxy) acetic acid] | 15 | 636 | 255 |  |  |  |
| Cc1cc2nc(-c3ccc4c(c3)c(N3CCN5C(=O)COC[C@H]5C3)nn4C)sc2c(-c2ccc(Cl)cc2)c1[C@H](OC(C)(C)C)C(=O)O [Compound 205, (S)-2-(tert-butoxy)-2-(7-(4-chloro-phenyl)-5-methyl-2-(1-methyl-3-((R)-4-oxohexa-hydropyrazino [2,1-c][1,4]oxazin-8(1H)-yl)-1H-indazol-5-yl)benzo[d]thiazol-6-yl)acetic acid] | 7 | 736 | 457 |  |  |  |
| Cc1cc2nc(-c3ccc4c(c3)c(N3CCN([C@H]5C[C@@H](O)C5)CC3)nn4C)sc2c(-c2ccc(Cl)cc2)c1[C@H](OC(C)(C)C)C(=O)O [Compound 206, (S)-2-(tert-butoxy)-2-(7-(4-chloro-phenyl)-2-(3-(4-((1s,3s)-3-hydroxy-cyclobutyl)piperazin-1-yl)-1-methyl-1H-indazol-5-yl)-5-methylbenzo[d]thiazol-6-yl) acetic acid] | 21 | 539 | 340 |  |  |  |
| Cc1cc2nc(-c3ccc4c(c3)c(N3CCN(C5(C)COC5)CC3)nn4C)sc2c(-c2ccc(Cl)cc2)c1[C@H](OC(C)(C)C)C(=O)O [Compound 207, (S)-2-(tert-butoxy)-2-(7-(4-chloro-phenyl)-5-methyl-2-(1-methyl-3-(4-(3-methyloxetan-3-yl)piperazin-1-yl)-1H-indazol-5-yl)benzo[d]thiazol-6-yl)acetic acid] | 4 | 693 | 380 |  |  |  |
| COC(=O)N1CC[C@@H](N2CCC(c3nn(C)c4ccc(-c5nc6cc(C)c([C@H](OC(C)(C)C)C(=O)O)c(-c7ccc(Cl)cc7)c6s5)nc34)CC2)C1 [Compound 208, (S)-2-(tert-butoxy)-2-(7-(4-chloro-phenyl)-2-(3-(1-((R)-1-(methoxy-carbonyl)pyrrolidin-3-yl)piperidin-4-yl)-1-methyl-1H-pyrazolo[4,3-b]pyridin-5-yl)-5-methylbenzo[d]thiazol-6-yl) acetic acid] | 2 | 206 | 54 |  |  |  |
| (S)-2-(2-(3-(1- ((R)-1-acetyl- pyrrolidin-3-yl) piperidin-4-yl)- 1-methyl-1H- pyrazolo[4,3-b] pyridin-5-yl)-7- (4-chlorophenyl)- 5-methylbenzo[d] thiazol-6-yl)-2- (tert-butoxy) acetic acid [Compound 169] |  |  |  | 2 | 86 | 36 |
| (S)-2-(tert-butoxy)- 2-(7-(4-chloro- phenyl)-2-(3-(1- ((S)-1-(methoxy- carbonyl) pyrrolidin- 3-yl)piperidin-4- yl)-1-methyl-1H- pyrrolo[2,3-b] pyridin-5-yl)-5- methylbenzo[d] thiazol-6-yl) acetic acid [Compound 202] |  |  |  | 7 | 680 | 157 |
